According to patent publication US8383172B2, “Recovery of hydrophobic peptides from oils” (University of Saskatchewan, priority 2007, dated 2013):

What was measured:
[1] = system: human lung adenocarcinoma cells (Calu-3); assay: Microarray analysis of apoptosis-regulating genes in Calu-3 cells; format: cell-based; design: key: ‘+’ and ‘−’ indicates genes over- and under-expressed, respectively; ‘+’ and ‘−’ indicates genes over- and under-expressed, respectively
Experimental: Cell culture. Human bronchial epithelial adenocarcinoma cell line (Calu-3) was obtained from ATCC (Manassas, Va., USA) and cultured in 50 cm^2 plastic culture flasks in modified eagle's medium (MEM) supplemented with 10% fetal bovine serum, glutamine (4 mM; Sigma-Aldrich, Canada) and penicillin (100 U mL-1)-streptomycin (100 μg mL-1) solution (Sigma-Aldrich, Canada). Cells were cultured at an initial density of 10^6 cells/mL, and fresh media was added on day 3. Cells were grown in an incubator at 37° C., 5% CO2, and 100% humidity.
Chemical treatments. Calu-3 cells were treated with different concentrations (0-100 μM) of cyclolinopeptide A (“CLA”), cyclolinopeptide C (“CLC”) or cyclolinopeptide E (“CLE”). Camptothecin (Sigma-Aldrich, Canada; 4 μM) and dimethylsulfoxide (DMSO) were used as positive and negative controls, respectively. Camptothecin is useful as a positive control in studies testing the effect of certain compounds on apoptosis in cancer cell lines. Camptothecin is a cytotoxic quinoline alkaloid that inhibits the DNA enzyme topoisomerase I (topo I) and has shown remarkable anti-cancer activity. Two analogs of camptothecin have been approved and are used in cancer chemotherapy.
Current microarray design platforms facilitate the design of gene expression arrays for analysis of a compound of interest and its impact on a large number of known genes. Cyclolinopeptide A, cyclolinopeptide C and cyclolinopeptide E were therefore used in microarray analysis to determine their effect on under- and over-expression of genes involved in the regulation of apoptosis in human lung adenocarcinoma cells (Table 2).

[2] = system: heat shock gene HSP70A; assay: Expression of heat shock gene HSP70A in nematode cultures exposed to cyclolinopeptide-A; format: in vivo, Caenorhabditis elegans; conditions: two hours exposure, C. elegans
Description: FIG. 17 is a chart showing the effects of cyclolinopeptide A on the expression of the HSP70A gene in Caenorhabditis elegans. Bars on the columns represent standard deviations. Letters above the bars designate significant differences determined by data analysis using one-way analysis of variance with pair-wise multiple comparisons were done by the Tukey test; and
The following example relates to the use of selected purified individual cyclolinopeptides recovered and processed as disclosed herein for modulating the expression of stress genes. Nematode cultures (Caenorhabditus elegans) were exposed for two hours to one of DMSO (negative control), 0.1 μM cyclolinopeptide-A, 1.0 μM cyclolinopeptide-A, 10.0 μM cyclolinopeptide-A, and 100.0 μM cyclolinopeptide-A, and then cultured to assess the effects of cyclolinopeptide-A on the expression of the heat shock gene HSP70A by C. elegans. The control treatment was unamended culture medium.

Substance | BAK gene up- or down-regulated [1] | BCL-2 gene up- or down-regulated [1] | CDEB gene up- or down-regulated [1] | FASLG gene up- or down-regulated [1] | Fas gene up- or down-regulated [1] | TNF gene up- or down-regulated [1] | TP53BP2 gene up- or down-regulated [1] | TP53 gene up- or down-regulated [1] | increase in the production of the Hsp70A protein ([2]; 0.1 μM in culture media) [%] | increase in the production of this heat shock protein (Hsp70A) ([2]; 1.0 μM in culture media) [fold] | increase in the production of the Hsp70A protein ([2]; 10.0 μM in culture media) [%] | CASP10 gene up- or down-regulated [1] | CIDEA gene up- or down-regulated [1] | HRK gene up- or down-regulated [1]
cyclolinopeptide A [CLP-A] | + | + | + | + | + | + | + | + | 30 | 3.5 | 30 |  |  | 
cyclolinopeptide C [CLP-C] |  | − | + |  | + | + | + | + |  |  |  | + | + | +
cyclolinopeptide E [CLP-E] |  | − | + |  | + | + | + |  |  |  |  |  | + | +
